# Measured values from patent US7449492B2, “Therapeutic agents—I” (priority 2000, dated 2008).
# What was measured:
# [1] = tested on: Peripheral blood mononuclear cells (PBMC); assay: Respiratory burst, H2O2 production by DCFH-DA flow cytometry; type: cell-based; details: 10 μg/mL or 1 μg/mL, added at the same time as the test compounds
# Procedure: Experiments were also carried out using 2′,7′-dichlorofluorescein diacetate (DCFH-DA) to measure the production of H2O2.(J P Robinson, Oxidative burst methods, in Handbook of Flow Cytometry Methods, Wiley-Liss Inc, pp 147-149, 1993). H2O2 oxidizes the non-fluorescent probe (DCFH-DA) to a fluorescent probe that can then be detected by a flow cytometer. Peripheral blood mononuclear cells (PBMC) were extracted from a donor blood sample by lysis of heparinized blood and used in a suspension of 1×10^6/mL of phosphate buffer, pH 7.3. The cells were then incubated, with DCFH-DA (1 μL/mL of 20 mM stock) for 15 minutes to allow it to be taken up and trapped by hydrolysis with cellular esterases. The cells were then stimulated by test compounds for 15 min at 37° C. Controls included in the experiment were unloaded control (cells with no DCFH-DA) and loaded control (cells with DCFH-DA, but no stimulation). These were used to monitor the non-specific oxidation of unstimulated cells. The cells were then analyzed on the flow cytometer (excitation at 488 nm, emission at 525±20 nm), gating each sample for individual cell populations—granulocytes, monocytes and lymphocytes (Table 3).
# [2] = tested on: phorbol ester binding site of PKC; assay: [3H]-phorbol dibutyrate competition assay on rat brain homogenate; details: co-incubation
# Procedure: A competition assay was performed to determine whether the diterpene esters of the instant invention bind to the phorbol ester binding site of PKC. […] This binding was not blocked by co-incubation with bisindolylmaleimide.
# [3] = molecular target: T1, PKCζ (Homo sapiens, UniProt Q05513); assay: EGFP-PKC isoform translocation in HeLa cells; type: cell-based; details: one hour, TPA 100 ng/mL, bryostatin-1 5 pg/mL, PEP003 2.25 μg/mL (5 μM), PEP005 670 μg/mL (1.5 μM)
# T1 construct: host or cells: HeLa cells
# T1 sequence (Q05513 1-592): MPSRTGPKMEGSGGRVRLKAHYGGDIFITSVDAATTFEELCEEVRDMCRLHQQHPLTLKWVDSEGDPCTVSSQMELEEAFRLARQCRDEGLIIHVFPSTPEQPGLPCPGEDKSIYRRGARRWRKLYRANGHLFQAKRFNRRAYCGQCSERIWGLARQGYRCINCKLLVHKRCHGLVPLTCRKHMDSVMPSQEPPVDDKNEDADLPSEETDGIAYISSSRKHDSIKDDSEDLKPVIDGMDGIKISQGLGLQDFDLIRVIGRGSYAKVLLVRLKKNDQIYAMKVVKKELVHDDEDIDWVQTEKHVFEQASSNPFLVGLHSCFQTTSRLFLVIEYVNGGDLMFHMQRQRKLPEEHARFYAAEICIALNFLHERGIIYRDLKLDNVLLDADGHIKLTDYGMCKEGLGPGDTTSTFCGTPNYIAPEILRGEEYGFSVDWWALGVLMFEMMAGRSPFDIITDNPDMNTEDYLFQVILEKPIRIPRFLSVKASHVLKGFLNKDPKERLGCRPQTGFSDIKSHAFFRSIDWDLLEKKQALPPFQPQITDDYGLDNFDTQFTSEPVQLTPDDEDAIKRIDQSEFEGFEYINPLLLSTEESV
# Procedure: (§1) Five EGFP-PKC isoforms (Clontech) were available for this experiment, enabling the screening of the three predominant PKC families (i.e. classical, novel and a typical PKCs). The members of the various PKC families are α, β, and γ (classical), θ (novel) and ζ (atypical).
# (§2) HeLa cells were plated out in a 24-well plate containing coverslips and transfected with PKC isoforms fused to EGFP, using a commercially available effectine-transfection kit (QIAGEN, Pty. Ltd.). Cells were exposed to the transfection reagents for 16-24 hr. Subsequently, transfected cells were treated for one hour with TPA (100 ng/mL), bryostatin-1 (5 pg/mL), PEP003 (2.25 μg/mL; 5 μM) or PEP005 ([…]) 1.5 μM). Following treatment, cells were fixed on coverslips and mounted on glass slides. The slides were subsequently examined visually by fluorescence microscopy, photographed, and over 150 cells were counted/treatment/PKC isoform. Counted cells were classified according to the localisation of the PKC-EGFP fluorescence as either cytoplasmic or plasma membrane using ImagePro™ 4.1 (FIG. 5). […] The number of these cells was also counted. Results are presented as an average and standard deviation of percentages of cells (Table 1).
# [4] = molecular target: T2, PKCθ (Homo sapiens, UniProt Q04759); assay: EGFP-PKC isoform translocation in HeLa cells; type: cell-based; details: one hour, TPA 100 ng/mL, bryostatin-1 5 pg/mL, PEP003 2.25 μg/mL (5 μM)
# T2 construct: host or cells: HeLa cells
# Procedure: as §1, §2
# [5] = molecular target: T3, PKCβ (Homo sapiens, UniProt P05771); assay: EGFP-PKC isoform translocation in HeLa cells; type: cell-based; details: one hour; for PKCβ translocation from the cytoplasm to the plasma membrane: TPA 100 ng/mL, bryostatin-1 5 pg/mL, PEP003 2.25 μg/mL (5 μM), PEP005 670 μg/mL (1.5 μM)
# T3 construct: host or cells: HeLa cells
# Procedure: as §1, §2
# [6] = molecular target: T4, PKCα (Homo sapiens, UniProt P17252); type: cell-based; details: HeLa, one hour; for PKCα translocation from the cytoplasm to the plasma membrane: TPA 100 ng/mL, bryostatin-1 5 pg/mL, PEP003 2.25 μg/mL (5 μM), PEP005 (1.5 μM)
# T4 construct: host or cells: HeLa cells
# Procedure: as §1
# as §2, with “counted.” for “counted. Results are presented as an average and standard deviation of percentages of cells (Table 1).”
# [7] = molecular target: T5, PKCγ (Homo sapiens, UniProt P05129); assay: EGFP-PKC isoform translocation in HeLa cells; type: cell-based; details: one hour; for PKCγ translocation from the cytoplasm to the plasma membrane: TPA 100 ng/mL, bryostatin-1 5 pg/mL, PEP003 2.25 μg/mL (5 μM), PEP005 670 μg/mL (1.5 μM)
# T5 construct: host or cells: HeLa cells
# Procedure: as §1, §2
# [8] = tested on: peripheral blood mononuclear cells (PBMCs); assay: Phagocytosis with fluorescent beads; type: cell-based; details: whole heparinized blood, 30 min at 37° C.
# Procedure: Phagocytosis by peripheral blood mononuclear cells (PBMCs) was assayed (Steinkamp et al., 1982) using 1 μm Fluoresbrite™ yellow-green fluorescent latex spheres (Polysciences, Inc., Warrington, Pa.). A sample of whole, heparinized blood was treated with drug and 5×10E7 fluorescent latex beads in 10 μL of PBS added per mL of suspension. Cells were incubated and maintained in suspension for 30 min by means of a shaker platform at 37° C. The stimulated and non-stimulated samples were then lysed to isolate PBMCs. The PBMCs were run on the flow cytometer measuring FITC (excitation at 488 nm, emission at 525±20 nm), gated for fluorescence (phagocytosed spheres) and light scatter (cell size).
# [9] = tested on: Burkitt's lymphoma cell lines (MutuI and BL74); assay: EBV activation, VCA on western blots, Burkitt's lymphoma cell lines; type: cell-based
# Procedure: Initially the effect of PEP003 and PEP004 was tested on the B95-8 cell line (an EBV positive marmoset cell line that is used worldwide as one of the best EBV producers). This cell line was treated with each of these compounds (at different concentrations) for 3 days and 7 days, respectively, and activation of EBV virus production was measured by the appearance of a viral capsid antigen (VCA) on western blots. Also, as a comparison, EBV was activated in this cell line with TPA.
# To ensure that equal amounts of each sample were analyzed, the gels were stained with Coomassie blue and the loadings were adjusted to make them equal. […] Next the PEP003 and PEP004 were assayed on two Burkitt's lymphoma cell lines and an LCL. This time only concentrations of 10^−5 and 10^−7 were used.
# [10] = tested on: rat brain PKC; assay: PKC kinase activity, PepTag Non-Radioactive Protein Kinase Kit; type: biochemical; details: FIG. 1; TPA various dilutions (lanes 3, 4 and 5); ether extract at final dilution of 1 in 5 relative to the sap; crude sap and aqueous layer diluted 1/25
# Procedure: The kinase activity of rat brain PKC (Promega) was determined using the Peptag™ Non-Radioactive Protein Kinase Kit (Promega). Using agarose gel electrophoresis the technique visualises the opposing electrostatic charge of a fluorescently labeled peptide ([sequence]) compared to the phosphorylated version of the same peptide.
# The reaction mixture was separated by gel electrophoresis, showing migration of the unreacted substrate (a) to the anode (top), and the product (b), which is more negatively charged because of phosphorylation by PKC, moving towards the cathode (bottom).
# [11] = tested on: latently HIV-1 infected cell line (U1); assay: Activation of latent HIV from U1 cells (p24 ELISA); type: cell-based, HIV-1 LAI strain; details: 20 hr culture
# Excerpt: A latently HIV-1 infected cell line (U1), derived from the promonocytic cell line U937 after infection with HIV-1 LAI strain, was used in these experiments. In the absence of activation, no or little virus (measured as p24 production) is produced by the U1 cell line. Phorbol esters are known to activate virus production from these cells (Tobiume et al., 1998) and so TPA/PMA was used as a positive control in these experiments.
# Supernatants were collected and viral replication monitored by determination of the amounts of HIV p24 gag protein in the culture supernatants by ELISA, using a NEN Life Science HIV-1 p24 ELISA kit. p24 values were calculated from OD values using a standard curve.
# [12] = tested on: CMV promoter; details: Christenson et al., 1999; cited from earlier work
# [13] = tested on: latent HIV in monocytes; details: Tobiume et al., 1998; cited from earlier work
# [14] = tested on: adenovirus 5; assay: Adenovirus replication in human melanoma cells (immunohistochemical detection); type: cell-based; details: 295 ng/mL; 2 days
# Excerpt: Human melanoma cells were infected with ten-fold dilutions of adenovirus 5 in culture, treated with dilutions of PEP005, PEP006, PEP008 and PEP010 and adenovirus replication determined 2 days later by immunhistochemical detection of virus-replicating cells.
# T3 sequence (P05771 whole entry, species assumed, canonical isoform): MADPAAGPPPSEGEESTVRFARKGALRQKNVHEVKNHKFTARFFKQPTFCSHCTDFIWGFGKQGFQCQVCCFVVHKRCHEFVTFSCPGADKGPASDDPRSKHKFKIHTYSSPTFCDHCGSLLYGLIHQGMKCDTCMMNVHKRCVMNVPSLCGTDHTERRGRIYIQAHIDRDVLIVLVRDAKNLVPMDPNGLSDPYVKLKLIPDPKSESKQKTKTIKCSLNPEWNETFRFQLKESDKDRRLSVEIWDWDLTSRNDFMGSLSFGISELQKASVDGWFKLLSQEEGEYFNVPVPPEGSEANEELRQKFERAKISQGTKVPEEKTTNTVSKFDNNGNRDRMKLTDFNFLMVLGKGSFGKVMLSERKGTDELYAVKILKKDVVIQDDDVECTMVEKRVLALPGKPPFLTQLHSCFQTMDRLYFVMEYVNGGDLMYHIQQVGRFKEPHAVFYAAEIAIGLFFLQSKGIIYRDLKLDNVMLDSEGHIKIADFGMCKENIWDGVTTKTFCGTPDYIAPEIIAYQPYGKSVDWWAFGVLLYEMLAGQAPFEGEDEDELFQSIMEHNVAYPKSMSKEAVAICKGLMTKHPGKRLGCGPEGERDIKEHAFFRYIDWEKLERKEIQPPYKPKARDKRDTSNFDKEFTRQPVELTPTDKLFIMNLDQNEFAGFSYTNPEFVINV
# T2 sequence (Q04759 whole entry, canonical isoform): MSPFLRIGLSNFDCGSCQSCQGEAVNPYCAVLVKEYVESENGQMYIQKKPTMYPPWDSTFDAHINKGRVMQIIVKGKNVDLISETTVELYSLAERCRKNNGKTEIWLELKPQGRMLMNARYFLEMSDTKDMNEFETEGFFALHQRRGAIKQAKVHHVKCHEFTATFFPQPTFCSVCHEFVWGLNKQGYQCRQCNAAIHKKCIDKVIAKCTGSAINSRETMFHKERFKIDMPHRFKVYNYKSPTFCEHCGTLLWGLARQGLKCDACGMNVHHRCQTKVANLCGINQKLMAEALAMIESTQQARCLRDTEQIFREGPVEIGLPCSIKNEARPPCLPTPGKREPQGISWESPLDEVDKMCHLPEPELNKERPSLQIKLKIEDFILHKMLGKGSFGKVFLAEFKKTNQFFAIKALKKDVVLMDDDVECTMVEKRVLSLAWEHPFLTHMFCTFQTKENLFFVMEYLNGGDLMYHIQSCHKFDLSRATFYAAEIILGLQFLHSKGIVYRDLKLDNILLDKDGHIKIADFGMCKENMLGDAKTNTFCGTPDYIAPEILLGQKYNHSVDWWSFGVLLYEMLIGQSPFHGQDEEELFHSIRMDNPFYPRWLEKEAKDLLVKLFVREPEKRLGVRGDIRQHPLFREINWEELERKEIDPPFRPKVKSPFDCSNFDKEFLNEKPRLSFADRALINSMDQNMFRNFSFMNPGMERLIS
Compound,PKCζ translocation [3],PKCθ translocation [4],number of PKCβ transfected cells with Golgi-like fluorescence [5],PKCβ translocation from the cytoplasm to the plasma membrane [5],PKCα translocation from the cytoplasm to the plasma membrane [6],number of PKCγ transfected cells displaying Golgi-like fluorescence [7],PKCγ translocation from the cytoplasm to the plasma membrane [7],number of PKCα transfected cells displaying Golgi-like fluorescence [6],phagocytosis of fluorescent latex spheres in PBMCs [8],activation of PKC [10],also measured
bisindolylmaleimide,–,–,–,–,–,–,–,–,–,–,effect of PKC inhibitor on the respiratory burst seen with TPA and PEP003 [1]: blocked the respiratory burst; binds to the phorbol ester binding site of PKC [2]: does not
CCC/C=C/C=C/C(=O)O[C@H]1/C(=C/C(=O)OC)C[C@H]2C[C@H]([C@@H](C)O)OC(=O)C[C@H](O)C[C@@H]3C[C@H](OC(C)=O)C(C)(C)[C@](O)(C[C@@H]4C/C(=C/C(=O)OC)C[C@H](/C=C/C(C)(C)[C@]1(O)O2)O4)O3 [bryostatin-1],fail to induce translocation of PKCζ,translocated,decreases the number of cells with PKCβ concentrated in the Golgi,not with bryostatin-1,not with bryostatin-1,–,–,–,–,–,–
"C/C=C(/C)C(=O)O[C@H]1C(C)=C[C@]23C(=O)[C@@H](C=C(CO)[C@@H](O)[C@]12O)[C@H]1[C@@H](C[C@H]3C)C1(C)C [PEP005, Ingenol-3-angelate]",fail to induce translocation of PKCζ,does not induce any change in the isoenzymes localization,decreases the number of cells with PKCβ concentrated in the Golgi,translocated from the cytoplasm to the plasma membrane,translocated from the cytoplasm to the plasma membrane,increase in the number of cells displaying Golgi-like fluorescence,translocated from the cytoplasm to the plasma membrane,increase in the number of cells displaying Golgi-like fluorescence,stimulate phagocytosis,–,–
CCCCCCCCCCCCCC(=O)O[C@@H]1[C@@H](C)[C@@]2(O)[C@@H](C=C(CO)C[C@]3(O)C(=O)C(C)=C[C@@H]23)[C@@H]2C(C)(C)[C@]12OC(C)=O [TPA],fail to induce translocation of PKCζ,translocated,increase in Golgi-like fluorescence,translocated from the cytoplasm to the plasma membrane,translocated from the cytoplasm to the plasma membrane,increase in the number of cells displaying Golgi-like fluorescence,translocated from the cytoplasm to the plasma membrane,increase in the number of cells displaying Golgi-like fluorescence,stimulate phagocytosis,showed activation of PKC,induction of VCA in MutuI cells [9]: did not; activation of HIV from U1 cells (p24 production) [11]: activated HIV from U1 cells; increase of CMV promoter transcriptional activity [12]: increase this activity; activation of latent HIV in monocytes [13]: activate latent HIV in monocytes
phosphatidyl serine,–,–,–,–,–,–,–,–,–,strong activation,–
"C/C=C(/C)C(=O)O[C@H]1C(C)=C[C@]23C(=O)[C@H](C=C(C)[C@@H](O)[C@]12O)[C@H]1[C@@H](C[C@H]3C)C1(C)C [PEP006, 20-deoxy-ingenol-3-angelate]",–,–,–,–,–,–,–,–,stimulate phagocytosis,–,increase of adenovirus replication (number of stained cells) [14]: 256%
